Calls of active or inactive are those of the source.

In experiment [1] the target is DNA dC->dU-editing enzyme APOBEC-3G (Homo sapiens, UniProt Q9HC16). In kind it is functional.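 Also: Dose-response counterscreen measuring inhibition of APOBEC3G DNA deaminase activity, run while confirming APOBEC3A inhibitors.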
In experiment [2] the target is Eukaryotic translation initiation factor 4H (Homo sapiens, UniProt Q15056). Put plainly: eIF4H binding inhibition – biochemical, uHTS, fluorescence polarization, translation initiation inhibitor project, primary screen (AID 2012).
Experiment [3] addresses DNA dC->dU-editing enzyme APOBEC-3A (Homo sapiens, UniProt P31941). Put plainly: Dose Response confirmation of small molecule APOBEC3A DNA Deaminase Inhibitors via a fluorescence-based single-stranded DNA deaminase assay. [Related pubchem assays (depositor defined):AID493011, AID493024]. In kind it is functional.
Experiment [4] concerns the target Polyadenylate-binding protein 1 (Homo sapiens, UniProt P11940). The experiment in a line: blockers of PABP interaction with poly(A) – biochemical, fluorescence polarization, […] (AID 2014). For orientation: Fluorescence polarisation rises when a labelled molecule tumbles more slowly, as on binding a larger partner.
The next experiment deals with T1, Hexokinase-1 (Homo sapiens, UniProt P19367).
T1 sequence (P19367 whole entry): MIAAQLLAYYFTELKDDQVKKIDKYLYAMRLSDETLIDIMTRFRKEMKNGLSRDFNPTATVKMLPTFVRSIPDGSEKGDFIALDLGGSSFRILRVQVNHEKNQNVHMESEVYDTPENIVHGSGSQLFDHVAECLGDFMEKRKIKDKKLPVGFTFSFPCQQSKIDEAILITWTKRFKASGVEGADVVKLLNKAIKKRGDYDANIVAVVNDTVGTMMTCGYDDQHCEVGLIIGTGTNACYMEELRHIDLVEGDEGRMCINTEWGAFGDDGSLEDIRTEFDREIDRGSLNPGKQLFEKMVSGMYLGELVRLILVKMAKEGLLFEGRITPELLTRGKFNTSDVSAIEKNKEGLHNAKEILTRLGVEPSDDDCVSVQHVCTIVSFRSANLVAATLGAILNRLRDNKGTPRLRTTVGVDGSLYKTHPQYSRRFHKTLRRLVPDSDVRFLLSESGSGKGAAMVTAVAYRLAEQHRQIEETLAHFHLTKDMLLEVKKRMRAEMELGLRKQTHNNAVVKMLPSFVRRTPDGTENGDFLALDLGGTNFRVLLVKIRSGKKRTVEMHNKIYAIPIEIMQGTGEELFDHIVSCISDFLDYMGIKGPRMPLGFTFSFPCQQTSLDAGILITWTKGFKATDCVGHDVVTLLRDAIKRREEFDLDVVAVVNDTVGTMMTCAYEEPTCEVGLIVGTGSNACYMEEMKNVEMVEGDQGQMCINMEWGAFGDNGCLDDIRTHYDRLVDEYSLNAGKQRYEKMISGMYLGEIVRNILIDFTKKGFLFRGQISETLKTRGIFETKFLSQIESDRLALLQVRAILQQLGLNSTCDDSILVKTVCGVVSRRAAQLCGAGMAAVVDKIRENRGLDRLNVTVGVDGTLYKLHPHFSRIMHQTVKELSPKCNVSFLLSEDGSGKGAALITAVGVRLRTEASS
Put plainly: HK1 enzyme activation by HKDC1 hits – biochemical, selectivity assay for HKDC1 activator project, dose response (AID 504762). It is filed as functional.

A further experiment addresses T2, Hexokinase HKDC1 (Homo sapiens, UniProt Q2TB90).
T2 sequence (Q2TB90 whole entry): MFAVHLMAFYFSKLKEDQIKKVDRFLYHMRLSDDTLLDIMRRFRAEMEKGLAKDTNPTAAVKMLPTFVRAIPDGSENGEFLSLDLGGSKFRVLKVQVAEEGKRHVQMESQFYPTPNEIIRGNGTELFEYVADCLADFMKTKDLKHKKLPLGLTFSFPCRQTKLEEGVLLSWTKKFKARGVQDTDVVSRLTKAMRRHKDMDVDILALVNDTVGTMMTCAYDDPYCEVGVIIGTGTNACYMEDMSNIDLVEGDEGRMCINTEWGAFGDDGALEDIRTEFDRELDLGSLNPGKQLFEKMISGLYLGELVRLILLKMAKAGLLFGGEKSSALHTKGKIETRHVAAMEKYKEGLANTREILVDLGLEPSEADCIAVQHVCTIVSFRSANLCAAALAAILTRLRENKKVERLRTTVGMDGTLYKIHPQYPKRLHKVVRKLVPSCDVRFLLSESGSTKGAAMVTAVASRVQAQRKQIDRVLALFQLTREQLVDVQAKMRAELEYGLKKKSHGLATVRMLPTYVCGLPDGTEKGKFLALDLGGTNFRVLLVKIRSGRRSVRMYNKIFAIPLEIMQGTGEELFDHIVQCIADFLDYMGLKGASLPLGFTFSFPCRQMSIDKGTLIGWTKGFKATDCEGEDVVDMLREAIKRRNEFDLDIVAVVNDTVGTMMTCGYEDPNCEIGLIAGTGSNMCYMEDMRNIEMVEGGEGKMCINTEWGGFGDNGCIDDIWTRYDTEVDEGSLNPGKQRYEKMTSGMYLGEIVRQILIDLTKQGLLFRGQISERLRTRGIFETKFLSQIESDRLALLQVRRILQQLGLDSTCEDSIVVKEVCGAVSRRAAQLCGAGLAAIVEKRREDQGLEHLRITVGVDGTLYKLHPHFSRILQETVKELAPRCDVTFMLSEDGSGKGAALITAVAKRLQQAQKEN
The experiment in a line: inhibition of HKDC1 glucose phosphorylation – biochemical, W721R variant, dose response (AID 504729). It is filed as functional.

Experiment [5] can be described thus: cells. It is filed as functional.
Experiment [6] can be described thus: cells. It is filed as functional, cell-based.
The nature of experiment [7]: Vero E6 cell cytotoxicity, dose response, cytotoxicity control for non-replicating M. tuberculosis project, secondary assay (AID 492998). It is filed as functional, VeroE6. The note with it: Vero C1008.
Experiment [8] can be described thus: microbe, parasite or virus in culture. In kind it is functional. The note with it: Mycobacterium tuberculosis.
The nature of experiment [9]: HepG2 cell cytotoxicity, dose response, cytotoxicity control for non-replicating M. tuberculosis project (AID 489018). The following applies: Mycobacterium tuberculosis. In kind it is functional.
Experiment [10] in a line: THP-1 cell cytotoxicity, dose response, cytotoxicity control for non-replicating M. tuberculosis project (AID 489025). It is filed as functional.
Experiment [11] in a line: cells. It is filed as functional, cell-based. This is another data set of the same source.
The target of a further experiment is Nonstructural protein 1 (Influenza A virus, UniProt Q194T2). In kind it is functional, Influenza A virus (A/California/07/2009(H1N1)).
Nonstructural protein 1, sequence (Q194T2 whole entry): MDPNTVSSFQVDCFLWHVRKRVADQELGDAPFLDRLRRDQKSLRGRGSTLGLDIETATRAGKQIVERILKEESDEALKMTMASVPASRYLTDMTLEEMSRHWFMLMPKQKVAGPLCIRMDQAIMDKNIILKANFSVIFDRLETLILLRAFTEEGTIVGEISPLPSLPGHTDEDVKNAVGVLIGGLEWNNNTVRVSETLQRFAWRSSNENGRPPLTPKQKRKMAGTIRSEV
Experiment [12] concerns the target T3, Ubiquitin-conjugating enzyme E2 N (Homo sapiens, UniProt P61088).
T3 sequence (P61088 whole entry): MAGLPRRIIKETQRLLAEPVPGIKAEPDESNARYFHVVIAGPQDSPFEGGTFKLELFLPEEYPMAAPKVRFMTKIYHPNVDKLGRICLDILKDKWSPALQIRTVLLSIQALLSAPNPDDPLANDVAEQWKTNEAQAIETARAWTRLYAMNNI
In kind it is functional.

In experiment [13] the target is T3, Ubiquitin-conjugating enzyme E2 N. In kind it is functional. The source holds these as a separate data set.
The target of the next experiment is Bcl-2-related protein A1 (Mus musculus, UniProt Q07440). In kind it is functional.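 Also: confirmatory dose–response counterscreen on Bfl-1, used to check hits from a UBC13 polyubiquitin inhibitor campaign.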
Bcl-2-related protein A1, sequence (Q07440 whole entry): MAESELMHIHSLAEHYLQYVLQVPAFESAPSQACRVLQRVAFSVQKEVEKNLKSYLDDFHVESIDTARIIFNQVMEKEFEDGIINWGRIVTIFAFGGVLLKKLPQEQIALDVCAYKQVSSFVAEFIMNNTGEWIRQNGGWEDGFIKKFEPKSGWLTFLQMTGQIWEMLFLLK
The target of experiment [14] is T4, Rac GTPase-activating protein 1 (Homo sapiens, UniProt Q9H0H5).
T4 sequence (Q9H0H5 whole entry): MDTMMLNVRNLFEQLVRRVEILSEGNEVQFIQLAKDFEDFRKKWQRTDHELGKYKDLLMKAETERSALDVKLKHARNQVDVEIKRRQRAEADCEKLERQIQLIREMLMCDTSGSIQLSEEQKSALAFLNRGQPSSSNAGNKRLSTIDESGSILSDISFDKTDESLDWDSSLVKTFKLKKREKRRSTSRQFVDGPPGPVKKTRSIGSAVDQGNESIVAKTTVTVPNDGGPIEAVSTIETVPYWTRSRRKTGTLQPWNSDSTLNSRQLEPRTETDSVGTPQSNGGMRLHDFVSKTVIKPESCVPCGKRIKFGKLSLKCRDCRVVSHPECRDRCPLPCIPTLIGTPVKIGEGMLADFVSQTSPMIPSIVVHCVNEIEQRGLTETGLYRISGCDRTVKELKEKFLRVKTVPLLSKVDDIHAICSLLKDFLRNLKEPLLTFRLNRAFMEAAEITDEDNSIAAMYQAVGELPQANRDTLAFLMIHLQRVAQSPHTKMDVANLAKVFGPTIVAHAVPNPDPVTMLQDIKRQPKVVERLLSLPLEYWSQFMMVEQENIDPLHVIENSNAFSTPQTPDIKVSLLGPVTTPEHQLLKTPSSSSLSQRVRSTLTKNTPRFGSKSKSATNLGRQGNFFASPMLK
The experiment in a line: blockers of MgcRacGAP-driven Rac1 GTP hydrolysis – biochemical, ADP Hunter fluorescence, primary and confirmatory, confirmation (AID 624330). In kind it is functional.

For experiment [15], the target named is T5, Corticotropin-releasing factor receptor 2/Corticotropin-releasing factor-binding protein (Homo sapiens, UniProt P24387+Q13324).
T5 sequence (Q13324 whole entry): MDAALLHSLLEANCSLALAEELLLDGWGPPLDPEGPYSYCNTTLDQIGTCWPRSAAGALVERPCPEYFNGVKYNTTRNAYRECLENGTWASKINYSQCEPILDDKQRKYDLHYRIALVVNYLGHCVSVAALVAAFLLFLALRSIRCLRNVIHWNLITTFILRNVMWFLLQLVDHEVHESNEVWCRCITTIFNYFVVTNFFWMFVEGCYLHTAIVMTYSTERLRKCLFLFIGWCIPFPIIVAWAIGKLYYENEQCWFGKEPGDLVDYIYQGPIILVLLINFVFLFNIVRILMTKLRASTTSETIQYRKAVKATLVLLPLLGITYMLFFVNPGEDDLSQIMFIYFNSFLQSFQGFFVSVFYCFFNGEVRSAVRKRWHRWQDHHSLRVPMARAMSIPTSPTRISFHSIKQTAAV
T5 sequence (P24387 whole entry): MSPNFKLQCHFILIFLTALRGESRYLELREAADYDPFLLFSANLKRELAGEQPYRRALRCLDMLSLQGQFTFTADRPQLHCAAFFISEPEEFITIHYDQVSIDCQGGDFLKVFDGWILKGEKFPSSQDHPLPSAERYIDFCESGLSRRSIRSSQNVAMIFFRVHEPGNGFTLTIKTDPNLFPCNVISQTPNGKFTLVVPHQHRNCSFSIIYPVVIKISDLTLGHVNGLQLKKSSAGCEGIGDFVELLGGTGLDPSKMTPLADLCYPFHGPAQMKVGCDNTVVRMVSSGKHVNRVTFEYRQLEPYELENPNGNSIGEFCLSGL
Put plainly: activators of CRF receptor 2 with binding protein – uHTS hits, confirmation (AID 602473). It is filed as functional. The note with it: read-out: EC50_Mean.

Another experiment deals with Estrogen receptor beta (Homo sapiens, UniProt Q92731).
Estrogen receptor beta, sequence (Q92731 whole entry, the tested form may be a part): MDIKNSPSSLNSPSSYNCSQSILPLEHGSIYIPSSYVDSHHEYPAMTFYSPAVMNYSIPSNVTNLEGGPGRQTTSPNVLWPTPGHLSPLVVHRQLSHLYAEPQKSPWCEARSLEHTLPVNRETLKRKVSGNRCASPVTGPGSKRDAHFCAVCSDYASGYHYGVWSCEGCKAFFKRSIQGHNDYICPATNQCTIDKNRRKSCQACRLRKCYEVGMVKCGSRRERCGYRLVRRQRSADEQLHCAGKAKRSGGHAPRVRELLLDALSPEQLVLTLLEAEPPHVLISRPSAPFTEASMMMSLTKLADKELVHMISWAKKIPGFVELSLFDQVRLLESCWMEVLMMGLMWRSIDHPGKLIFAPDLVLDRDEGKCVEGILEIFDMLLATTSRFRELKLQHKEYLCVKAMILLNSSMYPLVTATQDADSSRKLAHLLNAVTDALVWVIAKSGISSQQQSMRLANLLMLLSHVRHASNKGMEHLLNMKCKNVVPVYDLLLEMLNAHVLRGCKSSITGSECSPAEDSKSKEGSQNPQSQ
Experiment [16] deals with T6, Runt-related transcription factor 1/Core-binding factor subunit beta (Homo sapiens, UniProt Q01196+Q13951). Put plainly: disruptors of Runt domain/CBFb-SMMHC interaction – biochemical, FRET, Cerulean-Runt, Venus-CBFb-SMMHC, uHTS, […] (AID 1434). It is filed as protein assay.
T6 sequence (Q01196 whole entry, the tested form may be a part): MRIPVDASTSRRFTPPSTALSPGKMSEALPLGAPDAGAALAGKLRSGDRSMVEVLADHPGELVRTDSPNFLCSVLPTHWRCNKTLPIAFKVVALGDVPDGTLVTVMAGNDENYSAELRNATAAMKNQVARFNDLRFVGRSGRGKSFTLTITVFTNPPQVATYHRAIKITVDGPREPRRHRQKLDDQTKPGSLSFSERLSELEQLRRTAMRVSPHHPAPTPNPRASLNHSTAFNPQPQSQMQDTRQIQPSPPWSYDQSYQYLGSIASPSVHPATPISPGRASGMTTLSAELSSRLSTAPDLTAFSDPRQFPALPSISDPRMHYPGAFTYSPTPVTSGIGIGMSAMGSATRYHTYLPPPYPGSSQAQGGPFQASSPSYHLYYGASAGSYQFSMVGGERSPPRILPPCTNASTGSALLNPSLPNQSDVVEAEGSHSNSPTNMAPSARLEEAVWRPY
T6 sequence (Q13951 whole entry, the tested form may be a part): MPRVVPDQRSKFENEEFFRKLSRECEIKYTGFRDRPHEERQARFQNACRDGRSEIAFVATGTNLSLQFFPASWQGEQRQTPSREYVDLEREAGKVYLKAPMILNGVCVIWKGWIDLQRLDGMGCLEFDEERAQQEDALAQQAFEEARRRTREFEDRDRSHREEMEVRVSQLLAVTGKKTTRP
Experiment [17] deals with T6, Runt-related transcription factor 1/Core-binding factor subunit beta. The experiment in a line: Runt domain/CBFb-SMMHC interaction disruptors – biochemical, TR-FRET (AID 1438). It is filed as protein assay. Background: In TR-FRET formats the signal depends on donor and acceptor labels being close together.

DNA dC->dU-editing enzyme APOBEC-3G, sequence (Q9HC16 whole entry): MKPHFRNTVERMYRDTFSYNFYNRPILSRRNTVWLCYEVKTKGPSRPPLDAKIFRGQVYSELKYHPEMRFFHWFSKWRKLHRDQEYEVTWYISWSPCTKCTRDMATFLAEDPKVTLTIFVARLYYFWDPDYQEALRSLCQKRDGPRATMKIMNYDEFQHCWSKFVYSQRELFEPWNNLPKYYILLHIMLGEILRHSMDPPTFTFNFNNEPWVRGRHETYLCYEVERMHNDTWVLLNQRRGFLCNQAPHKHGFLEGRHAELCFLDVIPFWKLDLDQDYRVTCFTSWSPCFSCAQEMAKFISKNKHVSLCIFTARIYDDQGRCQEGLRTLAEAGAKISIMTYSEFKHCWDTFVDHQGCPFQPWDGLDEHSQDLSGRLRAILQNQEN
Polyadenylate-binding protein 1, sequence (P11940 whole entry): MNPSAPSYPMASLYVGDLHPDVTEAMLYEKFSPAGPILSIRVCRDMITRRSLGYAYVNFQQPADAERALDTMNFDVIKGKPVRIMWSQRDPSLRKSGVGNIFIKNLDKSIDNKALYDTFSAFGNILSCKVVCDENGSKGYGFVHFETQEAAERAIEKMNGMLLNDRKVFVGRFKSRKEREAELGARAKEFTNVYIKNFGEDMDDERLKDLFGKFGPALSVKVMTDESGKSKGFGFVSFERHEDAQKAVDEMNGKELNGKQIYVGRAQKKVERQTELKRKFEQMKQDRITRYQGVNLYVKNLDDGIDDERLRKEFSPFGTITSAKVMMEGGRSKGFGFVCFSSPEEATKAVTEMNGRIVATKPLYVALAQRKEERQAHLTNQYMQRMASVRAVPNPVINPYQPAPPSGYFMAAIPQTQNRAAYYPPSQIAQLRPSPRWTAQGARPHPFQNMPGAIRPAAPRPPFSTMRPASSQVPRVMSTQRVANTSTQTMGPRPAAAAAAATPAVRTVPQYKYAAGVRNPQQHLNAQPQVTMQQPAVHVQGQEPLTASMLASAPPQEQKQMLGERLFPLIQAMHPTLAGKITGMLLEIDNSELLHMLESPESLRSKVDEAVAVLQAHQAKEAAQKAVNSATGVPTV
DNA dC->dU-editing enzyme APOBEC-3A, sequence (P31941 whole entry): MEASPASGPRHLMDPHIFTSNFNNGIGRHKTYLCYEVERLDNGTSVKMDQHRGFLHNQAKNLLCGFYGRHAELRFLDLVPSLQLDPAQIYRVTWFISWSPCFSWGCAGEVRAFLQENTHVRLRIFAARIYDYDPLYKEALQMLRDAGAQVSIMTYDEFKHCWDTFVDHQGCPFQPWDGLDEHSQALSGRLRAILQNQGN

As usually defined, the IC50 is the point on the concentration scale where inhibition reaches its midpoint. For the compound `COC(=O)C1=C(C)N(Cc2ccccc2)C(NCCCCO)=N[C@H]1CCc1ccccc1`, the half-inhibitory concentration (IC50) in experiment [1] is 5.42 µM (active); in experiment [2] it was > 100 µM (inactive); in [3], 3.51 µM (active); in [4], 18.9 µM (active).

Regarding `O=C(c1ccccc1)c1nnc(-c2ccccc2)cc1O`, on Hexokinase-1, the EC50 is > 80 µM (inactive). Moreover, on Hexokinase HKDC1, the IC50 was > 80 µM (inactive).

Regarding `CNc1nc(-c2ccccn2)nnc1-c1ccccc1`, the IC50 in the experiment “cells [5]” was 11.1 µM (active); at Nonstructural protein 1, 1.66 µM (active). In addition, the EC50 is 12.8 µM (active) in the experiment “cells [6]” and > 350 µM (not active) in “cells [11]”. For the same compound, the CC50 in experiment [7] was 19.9 µM (active); in experiment [8] it was 13.3 µM (active); in [9], > 20 µM (active); in experiment [10] it was 19.1 µM (active).

`C#CCOCCOCCOCCNc1nc(N2CCN(C(=O)[C@H](CCCCN)n3cc([C@@H](N)C(C)CC)nn3)CC2)nc(N2CCN(C(=O)[C@H](CCCCN)n3cc([C@@H](N)CC(C)C)nn3)CC2)n1` (stereo not given in full): the IC50 is 8.4 µM (active) in experiment [12], 7.14 µM (active) in experiment [13], > 20 µM (inactive) at Bcl-2-related protein A1 and 114 µM (active) in experiment [14].

For the compound `Cc1cccc(S(=O)(=O)c2c(N)n(Cc3ccco3)c3nc4ccccc4nc23)c1`, the EC50 in experiment [15] is > 53 µM (inactive). For the same compound, the IC50 against Estrogen receptor beta is > 50 µM (not active); in experiment [16] it was > 100 µM (inactive); in experiment [17] it was > 100 µM (inactive).

With `COc1cc(/C=N\NC(=O)c2sc(N)nc2C)cc(OC)c1OC`, the values for the concentration for half-maximal inhibition (IC50) (in [12]; in experiment [13]; on Bcl-2-related protein A1) were 0.477 µM (active), 0.386 µM (active) and > 20 µM (inactive), respectively.
